Data taken from article PMC8989888, “Development of optimized drug-like small molecule inhibitors of the SARS-CoV-2 3CL protease for treatment of COVID-19” (Nature Communications, 2022).
Several values for one entry are separate records, joined by “and”; a condition that tells them apart may be missing. Identical values can stand only once. Like-named read-outs stand apart in the source and are kept apart here.

Target: SARS-CoV-2 3CL protease (Severe acute respiratory syndrome coronavirus 2, UniProt P0DTD1)
Assay: biochemical
Conditions: for Normalized SARS-CoV-2 3CL protease activity: 0.2 µM protease with 50 µM tested compound; for Normalized SARS-CoV-2 3CL protease activity / Protease activity (normalized): replicates; for activity against SARS-CoV-2 3CL protease (in words): compound 4 analogs
[1] = 200 nM protease, read-out: IC50

SMILES | Normalized SARS-CoV-2 3CL protease activity | IC50 [1] | activity against SARS-CoV-2 3CL protease (in words) | other results
CCOC(=O)/C=C/[C@H](C[C@@H]1CCNC1=O)NC(=O)[C@H](CC(C)C)NC(=O)OC(C)(C)C [AZVIII-33B] | 1.107 and 0.6918 and 1.159 | > 50 µM | inactive | –
CC(C)C[C@H](NC(=O)OC(C)(C)C)C(=O)N[C@H](CO)C[C@@H]1CCNC1=O [AZVIII-37A] | 0.8312 and 1.007 and 1.0118 | > 50 µM | inactive | –
COC(=O)[C@H](C[C@@H]1CCNC1=O)NC(=O)OC(C)(C)C [AZVIII-38] | 1.058 and 1.088 and 0.9126 | > 50 µM | did not produce active compounds | –
O=c1[nH]sc2ccccc12 [AZVIII-40A, 1,2-Benzisothiazol-3(2H)-one, reference compound] | – | – | – | IC50 (IC50): 0.79 µM
CCOC(=O)C=CC(CC1CCNC1=O)NC(=O)C(CC(C)C)NC(=O)OCc1ccccc1 (stereo not shown) [AZVIII-41A] | 0.05469 and 0.07659 and 0.08287 | > 50 µM | – | IC90 (200 nM protease): > 50 µM; Protease activity (normalized) (200 nM protease, log10[nM] 0.404879): 0.9534 and 1.001 and 1.046; Protease activity (normalized) (200 nM protease, log10[nM] 0.882): 0.9954 and 1.035 and 1.1072; Protease activity (normalized) (200 nM protease, log10[nM] 1.35912): 0.9788 and 1.032 and 1.063; Protease activity (normalized) (200 nM protease, log10[nM] 1.83624): 0.8536 and 0.8662 and 0.892; Protease activity (normalized) (200 nM protease, log10[nM] 2.31336): 0.8339 and 0.8695 and 0.9444; Protease activity (normalized) (200 nM protease, log10[nM] 2.79048): 0.86 and 0.9004 and 0.9124; Protease activity (normalized) (200 nM protease, log10[nM] 3.26761): 0.9439 and 0.9917 and 1.018; Protease activity (normalized) (200 nM protease, log10[nM] 3.74473): 0.9845 and 1.046 and 1.061; Protease activity (normalized) (200 nM protease, log10[nM] 4.22185): 0.8912 and 0.9195 and 0.9785; Protease activity (normalized) (200 nM protease, log10[nM] 4.69897): 0.4548 and 0.5207 and 0.5344; Protease activity (normalized) (200 nM protease, log10[nM] -0.0722425): 0.8359 and 0.8847 and 0.9024; Protease activity (normalized) (200 nM protease, log10[nM] -0.549364): 0.7778 and 0.8128 and 0.8188
CC(C)(C)OC(=O)NC(C=O)CC1CCNC1=O (stereo not shown) [AZVIII-42] | 0.09531 and 0.1273 and 0.138 | – | functioned slightly better | IC90 (200 nM protease): > 50 µM
CC(C)(C)OC(=O)NC(CC1CCNC1=O)Cn1sc2ccccc2c1=O (stereo not shown) [AZVIII-43A] | 1.104 and 1.129 and 1.238 | > 50 µM | did not produce active compounds | –
O=S(=O)(NCc1cccnc1)c1cccnc1 [AZVIII-44B] | 1.138 and 1.193 and 1.162 | > 50 µM | – | –
O=S(=O)(NCc1ccccc1)c1ccccc1 [AZVIII-44D] | 1.234 and 1.326 and 1.299 | > 50 µM | – | –
O=S(=O)(NCc1ccccc1)c1cccnc1 [AZVIII-44E] | 1.222 and 1.184 and 1.143 | > 50 µM | – | –
